From patent publication US20250302933A1, “ATTENUATED YET IMMUNOGENICALLY POTENTIATED TUMOR EXTRACELLULAR VESICLE COMPOSITIONS AND USES THEREOF” (KOREA INSTITUTE OF SCIENCE AND TECHNOLOGY, priority 2024, published 2025) come the findings set out here.

One data set has as its system cancer cells. As to the kind of experiment: Immunogenic cell death markers: calreticulin flow cytometry, HSP70/HMGB1 release Western blotting. The data set is classed as cell-based, mouse. The procedure: (§1) Protein concentrations of the samples were quantified using a DCTM protein assay kit (5000111, Bio-Rad, Hercules, CA, USA). The samples were dissolved using radioimmunoprecipitation buffer (9806S; Cell Signaling Technology, Danvers, MA, USA) and subjected to SDS-PAGE. The samples were loaded onto a sodium dodecyl sulfate polyacrylamide gel, separated by gel electrophoresis, and transferred to a nitrocellulose membrane. The membrane was blocked with 5% skim milk and incubated overnight at 4° C. with primary antibodies against the following: Tsg101 (sc-22774; Santa Cruz, Dallas, TX, USA), YAP (sc99010), CD81 (sc-166029), ALIX (sc-53540), calnexin (ab22595; Abcam, Cambridge, United Kingdom), OVA (0220-1682; Bio-Rad), HMGB1 (ab18256; Abcam), HSP70 (ab181606; Abcam), or B-actin (4967S; Cell Signaling Technology). After washing five times (5 min each) with Tris-buffered saline containing 0.05% Tween-20 (TBS/T), the membrane was incubated with anti-mouse peroxidase (1:3000; A4416; Sigma-Aldrich) or anti-rabbit peroxidase (1:3000; A0545) secondary antibody at 20 to 25° C. for 1 hour. The membrane was then incubated with an ECL substrate (1705061, Bio-Rad) and visualized using a ChemiDoc™ Touch Imaging System (Bio-Rad).
Cells were seeded in a 6-well plate (30006; SPL Life Sciences, 5×10^5 cells/well) and treated with verteporfin in a serum-free medium for 3 hours. The cells were fixed with 0.25% paraformaldehyde for 5 minutes at 4° C. and then blocked with 3% bovine serum albumin for 15 minutes at 4° C. A calreticulin antibody (ab2907; Abcam) was added to the samples and incubated at 4° C. for 45 minutes. […] Calreticulin expression on the cell membrane was evaluated using flow cytometry gating of PI-negative cells.
To determine appropriate conditions for AI-TEV production, three types of cancer cells were treated with various doses of verteporfin in a serum-free medium and cell viability was assessed. […]
On the technique in general: In flow cytometry, cells or beads pass a laser one at a time.

For a further data set, the target named is T1, YAP (Mus musculus, UniProt P46938).
T1 construct: endogenous in cells; host or cells: E.G7-OVA, MOC2 and 4T1 mouse cancer cells
The experiment in a line: Western blotting of YAP after verteporfin treatment. The data set is classed as cell-based. Particulars: verteporfin 24 hours. The procedure: as §1
In addition, the migration ability of TEV-stimulated tumor cells was evaluated using a transwell migration assay. […] E.G7-OVA cells were also evaluated using the same protocol, but due to non-adherent characteristics, invasive cells were counted in the lower wells of a transwell chamber rather than on a membrane (FIGS. 18 and 19). […] Due to the aggressive and metastatic characteristics of 4T1 cells, a matrigel coating was added to the transwell membrane for the invasion assay. […] Finally, to confirm the attenuation of the tumor-promoting properties of AI-TEV in vivo, the efficacy as a therapeutic vaccine was evaluated in a mouse model. The therapeutic vaccine was another well-studied form of tumor vaccine designed to suppress tumor growth and induce long-term antitumor memory.

The next data set has as its system MOC2 cells. The experiment in a line: Cell viability assay (CCK-8) with verteporfin. The data set is classed as cell-based, mouse. Particulars: 24 hours. The procedure: (§2) Cells were seeded in a 96-well plate (30096; SPL Life Sciences, Pochon, South Korea) (5,000 cells/well) and treated with various doses of verteporfin in a serum-free medium for 24 hours. Cell viability was measured using Cell counting kit-8 (CCK-8) assay (CK04; Dojindo, Kumamoto, Japan), and the absorbance was measured at 450 nm using a microplate reader (SpectraMAX 340; Molecular Devices, San Jose, CA, USA).
(§3) To determine appropriate conditions for AI-TEV production, three types of cancer cells were treated with various doses of verteporfin in a serum-free medium and cell viability was assessed. E.G7-OVA cells were a derivative of EL4 mouse lymphoma cells carrying a complete copy of chicken ovalbumin (OVA) mRNA. Mouse oral cancer 2 (MOC2) cells represented an aggressive form of mouse oral squamous cell carcinoma, while 4T1 cells were triple-negative, highly invasive malignant mouse breast cancer cells. The lowest dose of verteporfin that induced effective cell death was 20 ng/ml for E.G7-OVA cells and 200 ng/ml for MOC2 and 4T1 cells and cell viability was approximately 80% for all cell types (FIGS. 2 and 3). The immunogenicity of the cell death was verified based on an increase in DAMPs after verteporfin treatment. […] Tumor cells were cultured in a serum-free medium for 24 hours with or without verteporfin to prepare AI-TEV or control TEV (C-TEV), respectively. […] TEVs expressed several EV markers such as tumor susceptibility genes 101 (TSG101), CD81, and Alix, but had no negative marker calnexin (FIGS. 12 and 13). Since verteporfin inhibited both autophagy and YAP, it was expected that there was a significant difference in a proteomic cargo between C-TEV and AI-TEV.

The subject of a further data set is E.G7-OVA cells. As to the kind of experiment: Cell viability assay (CCK-8) with verteporfin. Particulars: 24 hours. The data set is classed as cell-based, mouse. As to the method: as §2, §3
In the next data set the test system is 4T1 cells. The experiment in a line: Cell viability assay (CCK-8) with verteporfin. The data set is classed as cell-based, mouse. Particulars: 24 hours. The procedure: as §2, §3
[1] abbreviates: conditioned medium, 24 hours after verteporfin treatment.

T1 sequence (P46938 whole entry): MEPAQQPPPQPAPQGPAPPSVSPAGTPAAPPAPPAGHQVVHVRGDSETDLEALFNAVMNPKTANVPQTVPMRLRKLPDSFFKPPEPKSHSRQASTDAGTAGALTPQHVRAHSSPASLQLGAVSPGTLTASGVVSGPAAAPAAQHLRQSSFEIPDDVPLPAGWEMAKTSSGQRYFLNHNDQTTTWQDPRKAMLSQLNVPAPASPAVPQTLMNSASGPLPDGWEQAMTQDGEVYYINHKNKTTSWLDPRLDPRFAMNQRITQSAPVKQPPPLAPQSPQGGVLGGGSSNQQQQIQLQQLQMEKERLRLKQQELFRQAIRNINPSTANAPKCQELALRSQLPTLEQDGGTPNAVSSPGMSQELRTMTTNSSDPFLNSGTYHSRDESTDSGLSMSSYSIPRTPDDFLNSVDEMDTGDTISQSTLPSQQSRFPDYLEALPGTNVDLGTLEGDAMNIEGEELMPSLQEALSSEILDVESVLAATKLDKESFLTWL

Take Verteporfin: in the data set with cancer cells (cancer cells after verteporfin treatment, cell surface), the calreticulin expression entry is listed as “dose-dependent increase”. The “release of heat shock protein 70 (HSP70)” value in the data set on cancer cells (setting [1]) is “dose-dependent increase”. Further, the “release of high mobility group box 1 (HMGB1)” value in the data set with cancer cells (setting [1]) is listed as “dose-dependent increase”. Also, on YAP (4T1 cells), the YAP protein result is listed as “YAP inhibition”. For the same substance, the YAP protein content result at YAP (E.G7-OVA cells) and on YAP (MOC2 cells) was “decreased” each time. Besides, the cell viability entry in the data set on MOC2 cells (200 ng/ml verteporfin), with E.G7-OVA cells (20 ng/ml verteporfin) and in the data set with 4T1 cells (200 ng/ml verteporfin) was “approximately 80%” each time. In addition, the “lowest dose of verteporfin that induced effective cell death” value in the data set with MOC2 cells (serum-free medium) was 200 ng/mL; with E.G7-OVA cells (serum-free medium), 20 ng/mL; in the data set with 4T1 cells (serum-free medium) it was 200 ng/mL.
